{"source": "patent US20100226886A1", "about": "“Combinations of MTP Inhibitors with Cholesterol Absorption Inhibitors or Interferon for Treating Hepatitis C” (priority 2007, published 2010)", "origin": "cited, not measured here", "key": {"[1]": {"conditions": "in vivo"}, "[2]": {"conditions": "animal model for homozygous familial hypercholesterolemia; for example at 25 mg/day"}, "[3]": {"conditions": "clinical studies, 80 mg/day or greater"}}, "note": "Entries after “also recorded” stand apart in the source; their conditions may differ. Read-outs that look alike come from different tables or passages of the source.", "data": [{"molecule": "NC(=O)c1ncn([C@@H]2O[C@H](CO)[C@@H](O)[C@H]2O)n1", "note": "[ribavirin]", "values": [{"measurement": "side effects in patients", "setting": "[1]", "value": "red cell haemolysis to a variable degree in almost all patients"}, {"measurement": "increase of sustained response rate", "setting": "HCV; ribavirin added to interferon or peginterferon", "value": "two- to three-fold"}, {"measurement": "effect on HCV", "setting": "HCV; ribavirin by itself", "value": "little effect on HCV"}]}, {"molecule": "O=C(NC1CCN(CCCCC2(C(=O)NCC(F)(F)F)c3ccccc3-c3ccccc32)CC1)c1ccccc1-c1ccc(C(F)(F)F)cc1", "note": "[BMS-201038, N-(2,2,2-Trifluorethyl)-9-[4-[4-[[[4′-(trifluoromethyl) [1,1′biphenyl]-2-Yl]carbonyl]amino]-1-piperidinyl]butyl]9H-fluorene-9-carboxamide]", "values": [{"measurement": "plasma cholesterol levels", "setting": "[2]", "value": "effectively reduced plasma cholesterol levels in a dose dependent manner"}, {"measurement": "adverse events", "setting": "25 mg/day", "value": "gastrointestinal disturbances, abnormalities in liver function, and hepatic steatosis"}, {"measurement": "adverse events", "setting": "25 mg/day, listed as AEGR-733", "value": "gastrointestinal disorders, abnormalities in liver function and/or hepatic steatosis"}]}, {"molecule": "Cc1cc(C)c2c3ccccc3n(Cc3ccc([C@@H](C(=O)N[C@H](CO)c4ccccc4)C4CCCC4)cc3)c2n1", "note": "[implitapide, (2S)-2-cyclopentyl-2-[4-[(2,4-dimethyl-9H-pyrido[2,3-b]indol-9-yl)methyl]phenyl]-N-[(1S)-2-hydroxy-1-phenylethyl]ethanamide]", "values": [{"measurement": "adverse events", "setting": "80 mg/day or greater (80 mg/day and 160 mg/day)", "value": "gastrointestinal disturbances, abnormalities in liver function, and hepatic steatosis; also recorded: gastrointestinal disorders, abnormalities in liver function and/or hepatic steatosis"}, {"measurement": "efficacy for hypercholesterolemia", "setting": "[3]", "value": "therapeutically effective for hypercholesterolemia"}]}, {"molecule": "Alpha interferon", "values": [{"measurement": "side effects in patients", "setting": "[1]", "value": "multiple neuropsychiatric effects"}]}]}
